According to patent US20110172163A1, “Novel Protease Inhibitors” (QUEENSLAND UNIVERSITY OF TECHNOLOGY, priority 2008, published 2011):
Peptide text beside a SMILES is read from it. * marks the point of attachment. pNA = O=[N+]([O-])c1ccc(N*)cc1

Experiments:
[1] = comparison value, source not given; cited from earlier work
[2] = molecular target: KLK4 (Homo sapiens, UniProt Q9Y5K2); test: Kinetic studies of para-nitroanilide substrates with KLK4; type: biochemical; set-up: pro-region of PSA (KLK3), replacing the native KLK4 pro-region (only if the E. coli preparation was used) (N, cleaved yes); made in house; conditions: relative to the parent substrate (Bz-FVR-pNA or FVQR-pNA)
Chain of KLK4 (Q9Y5K2 31-254): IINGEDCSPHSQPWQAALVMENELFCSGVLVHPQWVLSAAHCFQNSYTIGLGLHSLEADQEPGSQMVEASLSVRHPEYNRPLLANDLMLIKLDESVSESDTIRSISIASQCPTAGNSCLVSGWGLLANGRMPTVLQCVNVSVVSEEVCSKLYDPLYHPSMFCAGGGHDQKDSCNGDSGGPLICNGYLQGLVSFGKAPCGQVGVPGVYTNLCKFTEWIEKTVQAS
Method: Human recombinant KLK4 was expressed in E. coli using a previously described chimeric KLK4 plasmid construct where the native pro-region was replaced with the pro-region of PSA, enabling autoactivation. Protein was expressed as inclusion bodies which were isolated and solubilised as described previously to yield 90% pure KLK4. Protein refolding was performed by dilution into 100 volumes of refolding buffer I (2 M urea, 0.1M NaCl, 5 mM GSH, 0.5 mM GSSG, 10 mM benzamidine, 50 mM tris HCl pH 8.0, 2 mM CaCl2) over 44 hours before further dilution into 3 volumes refolding buffer II (refolding buffer I with 0.5 M urea 0.5 mM GSH, 0.05 mM GSSG, 2 mM CaCl2) over another 24 hours. Dialysis was performed as previously described (with additional 2 mM CaCl2 to reduce aggregation) before concentration using UNO sphere Q (Biorad) eluting with tris buffered saline (pH 7.5)/2 mM CaCl2. […]
Kinetic Studies Active site titration was carried out according to Beynon et al., replacing α1-proteinase inhibitor with soybean trypsin inhibitor. Enzymatic activity assays were performed with 4.9 nM KLK4 and substrate concentrations in the range of 0-600 μM in 300 μL of assay buffer with hydrolysis monitored over 5 minutes as described for the substrate screen. […]

Row | Compound | half life [1] [h] | reduction of kcat [2] [%]
1 | CC(C)c1nc(CN(C)C(=O)N[C@H](C(=O)N[C@@H](Cc2ccccc2)C[C@H](O)[C@H](Cc2ccccc2)NC(=O)OCc2cncs2)C(C)C)cs1 [ritonavir] | 3.8 | –
2 | CC(=O)N[C@@H](Cc1ccccc1)C(=O)N[C@H](C(=O)N[C@@H](CCCNC(=N)N)C(=O)Nc1ccc([N+](=O)[O-])cc1)C(C)C [Ac-FVR-pNA] (Ac-Phe-Val-Arg-pNA) | – | 47
